Where “and” joins values, the source holds several entries; their conditions need not be identical. Equal values may be shown once.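 48-hour exposure; five concentrations; linearly interpolated endpoints. GI50 is the concentration that inhibits growth by half. TGI denotes the concentration required for complete inhibition of growth.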 Where only a bound is given, the exact number is not on record here.

The values below come from PubChem BioAssay (NCI).

Holding throughout (assay): growth of human tumour cells (NCI), 48 h
For assay [1], the system named is COLO 205 colon.
Assay [2] deals with HCT-15 colon.
The subject of assay [3] is UACC-257 melanoma.
In assay [4] the test system is A498 renal.
Assay [5] has as its system OVCAR-5 ovarian.
Assay [6] deals with CCRF-CEM leukemia.
Assay [7] relates to SW-620 colon.
The test system of assay [8] is HCT-116 colon.
Assay [9] deals with KM12 colon.
Assay [10] relates to MDA-MB-435.

As to `N[C@@H]1C(=O)N2C(C(=O)OC(c3ccccc3)c3ccccc3)=C(CCl)CS[C@H]12`, the GI50 is 40.3 µM in assay [1]; 37.9 µM in assay [2]; more than 100 µM in assay [3]; more than 100 µM in assay [4]; 44.5 µM in [5]; 36.6 µM in assay [7]. For the same compound, the GI50 in assay [8] was 27.1 µM; in assay [9], 38.1 µM; in assay [10] it was 35.1 µM. Further, the TGI in assay [1] was more than 100 µM; in assay [2], more than 100 µM; in assay [3], more than 100 µM; in [4], more than 100 µM; in assay [5], more than 100 µM; in assay [6] it was more than 61.6 µM. The TGI in [7] is more than 100 µM; in assay [8], more than 76.6 µM; in assay [9] it was more than 100 µM; in [10], more than 100 µM.
In the case of `NC1=NC(c2ccc(Cl)cc2)N(c2ccc(S(N)(=O)=O)cc2)C(N)=N1` (centres undefined), the TGI in [1], in assay [2], in [3], in [4], in assay [5] and in assay [6] was more than 100 µM each time. The TGI in assay [7], in assay [8], in [9] and in assay [10] was more than 100 µM each time.
`COc1ccc2c(C3(c4cn(C)c5cc(OC)ccc45)C(=O)Nc4ccc(Cl)cc43)cn(C)c2c1`: the GI50 in [1] is 1.95 µM; in [2] it was 4.5 µM; in assay [3], 2.29 µM; in assay [4] it was 4.5 µM; in [5], 5.37 µM; in assay [6], 3.81 µM. The GI50 in assay [7] was 4.67 µM; in assay [8], 3.15 µM; in [9], 3.82 µM; in [10] it was 2.51 µM. Moreover, the TGI was 4.73 µM in [1]; more than 100 µM in [2]; 8.56 µM in assay [3]; 88.7 µM in assay [4]; more than 100 µM in [5]; more than 100 µM in assay [6]. For the same compound, the TGI is more than 100 µM in assay [7], 19.7 µM in assay [8], 21.1 µM in assay [9] and 7.77 µM in [10].
Regarding `CC1=CC(=O)C(C(C)C)=CC1=Nc1cc(Br)c(O)c(Br)c1`, the GI50 was 19.2 µM in assay [1]; 3.85 µM in assay [2]; 14.7 µM in assay [3]; 3.81 µM in [4]; 11.8 µM in assay [5]; 2.72 µM in assay [6]. For the same compound, the GI50 in assay [7] is 4.18 µM; in assay [8], 3.39 µM; in assay [9], 2.33 µM; in [10], 2.1 µM. Further, the TGI in assay [1] came to 35.1 µM; in [2], 21.1 µM; in assay [3] it was 33.1 µM; in [4], 19.6 µM; in [5] it was 30.3 µM; in assay [6], 18.1 µM. Besides, the TGI in assay [7] came to 15.4 µM; in assay [8] it was 11.6 µM; in [9], 7.01 µM; in [10] it was 6.13 µM.
On to `Cc1ccc(C(NC(=O)c2ccccc2)c2ccc3cccnc3c2O)cc1` (centres undefined), for which the GI50 in [1] is 0.44 µM; in assay [2], 0.24 µM; in assay [3], 0.293 µM; in assay [4] it was 0.376 µM; in [5] it was 0.611 µM; in assay [6], 0.0783 µM. Besides, the GI50 in assay [7] was 0.431 µM; in [8], 0.303 µM; in [9], 0.38 µM; in assay [10], 0.491 µM. The TGI was 18.5 µM in [1]; more than 91.2 µM in [2]; 2.58 µM in assay [3]; 7.88 µM in assay [4]; more than 70.4 µM in assay [5]; more than 43.5 µM in [7]. Besides, the TGI in assay [8] is 13.8 µM; in assay [9] it was more than 43.7 µM; in assay [10] it was 23.4 µM.
As for `COc1cc(NS(C)(=O)=O)ccc1Nc1c2ccccc2nc2ccccc12`, the GI50 is 0.715 µM and 1.11 µM in assay [1]; 1.7 µM and 1.38 µM and 1.45 µM in assay [2]; 11.8 µM and 5.93 µM in assay [3]; 1.61 µM and 0.237 µM and 0.405 µM in assay [4]; 8.1 µM and 5.64 µM and 6.81 µM in [5]; 0.0918 µM and 0.182 µM and 0.105 µM in assay [6]. Also, the GI50 in [7] is 1.49 µM and 0.242 µM and 0.351 µM; in [8] it was 0.82 µM and 0.368 µM and 0.424 µM; in [9], 1.71 µM and 1.68 µM; in [10], 3.04 µM and 11 µM and 7.26 µM. In addition, in assay [9], the TGI is 11.4 µM [middle of 8 runs].
`Cc1cc(Nc2nc(-c3cccnc3)nc3ccccc23)n[nH]1`: the GI50 in assay [1] was 1.07 µM; in assay [2], 0.512 µM; in assay [3], 42.2 µM; in [4], 0.183 µM; in assay [5], 7.77 µM; in assay [6] it was 4.83 µM. For the same compound, the GI50 in assay [7] is 1.09 µM; in assay [8] it was 0.494 µM; in [9] it was 0.206 µM; in assay [10], 0.647 µM. For the same compound, the TGI was 3.74 µM in assay [1]; more than 100 µM in [2]; more than 100 µM in [3]; 0.985 µM in assay [4]; more than 100 µM in assay [5]; more than 100 µM in assay [6]. Moreover, the TGI is more than 100 µM in [7], more than 100 µM in assay [8], 99.1 µM in assay [9] and more than 100 µM in assay [10].
In the case of `COc1ccc(/C=c2\sc3n(c2=O)C2C(NN=3)N(C)C(=O)N2C)cc1` (centres undefined), the GI50 in assay [1] is 1.09 µM; in assay [2] it was 0.428 µM; in assay [3], more than 100 µM; in assay [4] it was 0.113 µM; in assay [5], 2.25 µM; in assay [6] it was 0.426 µM. The GI50 in assay [7] was 0.747 µM; in assay [8], 0.483 µM; in assay [9] it was 0.588 µM; in [10], 0.2 µM. The TGI in assay [1] is more than 100 µM; in [2], more than 100 µM; in assay [3], more than 100 µM; in [4], 1.49 µM; in assay [5], more than 100 µM; in assay [6], more than 100 µM. Also, the TGI in assay [7] was more than 100 µM; in assay [8], more than 100 µM; in assay [9] it was more than 100 µM; in assay [10], 0.759 µM.
